Assay results from article PMC8296573, “Synthesis and Biological Evaluation of Fingolimod Derivatives as Antibacterial Agents” (ACS Omega, 2021).
≈ marks a conversion by molar mass, not a printed value. Where two headings read alike, the source gives them in different places.

Legend:
S. aureus ATCC 25923 [1] = test: Antibacterial activity, pre-exposure (planktonic cells and biofilm formation); assay type: cell-based, Staphylococcus aureus; settings: for MIC / inhibition at 5 µM / inhibition at 10 µM / inhibition at 15 µM / inhibition at 25 µM: Staphylococcus aureus, ATCC25923; for inhibition at 5 µM / inhibition at 10 µM / inhibition at 15 µM / inhibition at 25 µM / Average inhibition %, biofilms viability / Average inhibition %, planktonic cells viability: pre-exposure, ± SD
Procedure, shortened: (§1)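 Growth prevention was tested by adding compounds together with the inoculum. Plates were incubated 18 h at 37 °C. Viability was read by resazurin fluorescence and biomass by crystal violet absorbance at 595 nm.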

S. aureus ATCC 25923 [2] = test: Antibacterial activity, post-exposure on preformed 18-h-old biofilms; assay type: cell-based, Staphylococcus aureus; settings: ± SD; for inhibition at 25 µM / inhibition at 50 µM / inhibition at 100 µM / inhibition at 200 µM: Staphylococcus aureus; for inhibition at 25 µM: ATCC25923, 25 µM; for inhibition at 50 µM: ATCC25923, 50 µM; for inhibition at 100 µM: ATCC25923, 100 µM; for inhibition at 200 µM: ATCC25923, 200 µM
Procedure, shortened: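 Biofilms grown 18 h without compound, medium then replaced and compound added for a further 24 h. Planktonic OD and resazurin (20 μM final) fluorescence (ex 560/em 590 nm) read; washed biofilms stained with 20 μM resazurin 30 min at 37 °C, then ethanol-fixed and crystal violet-stained, absorbance 595 nm.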

S. aureus ATCC 12598 = test: Antibacterial activity, pre-exposure; assay type: cell-based, Staphylococcus aureus; settings: Staphylococcus aureus, ATCC12598; pre-exposure, 18 h; read-out: MIC S. aureus ATCC 12598
Procedure, shortened: as §1

A. baumannii NCTC 13423 = test: Antibacterial activity, pre-exposure; assay type: cell-based, Acinetobacter baumannii; settings: for Average inhibition %, biofilms viability / Average inhibition %, planktonic cells viability / inhibition at 10 µM / inhibition at 15 µM / inhibition at 25 µM / inhibition at 50 µM: A. baumannii NCTC 13423, pre-exposure, ± SD; for inhibition at 10 µM / inhibition at 15 µM / inhibition at 25 µM / inhibition at 50 µM / MIC: Acinetobacter baumannii, NCTC13423
Procedure, shortened: as §1

P. aeruginosa ATCC 9027 = test: Antibacterial activity, pre-exposure; assay type: cell-based, Pseudomonas aeruginosa; settings: for Average inhibition %, biofilms viability / Average inhibition %, planktonic cells viability / inhibition at 50 µM / inhibition at 100 µM / inhibition at 150 µM / inhibition at 200 µM: P. aeruginosa ATCC 9027, pre-exposure, ± SD; for inhibition at 50 µM / inhibition at 100 µM / inhibition at 150 µM / inhibition at 200 µM: Pseudomonas aeruginosa, ATCC9027
Procedure, shortened: as §1

[3] = 10 µM, read-out: Average inhibition %, biofilms biomass
[4] = 10 µM, read-out: Average inhibition %, planktonic cells turbidity
[5] = 15 µM, read-out: Average inhibition %, biofilms biomass
[6] = 15 µM, read-out: Average inhibition %, planktonic cells turbidity
[7] = 25 µM, read-out: Average inhibition %, biofilms biomass
[8] = 25 µM, read-out: Average inhibition %, planktonic cells turbidity
[9] = read-out: Average inhibition %, biofilms biomass
[10] = read-out: Average inhibition %, planktonic cells turbidity
[11] = 50 µM, read-out: Average inhibition %, biofilms biomass
[12] = 50 µM, read-out: Average inhibition %, planktonic cells turbidity

MIC (S. aureus ATCC 25923 [1]; lowest concentration with no visible growth (>90% inhibition of turbidity and viability of planktonic cells), 18 h, read-out: MIC S. aureus ATCC 25923): 10 µM (≈ 3.73 µg/mL)
MIC (S. aureus ATCC 25923 [1]; read-out: MIC (S. aureus)): 10 µM (≈ 3.73 µg/mL)
MIC (S. aureus ATCC 12598): 10 µM (≈ 3.73 µg/mL)
MIC (A. baumannii NCTC 13423; pre-exposure, Inactive = no activity up to 50 μM, > = some inhibition but no MIC reached, read-out: MIC A. baumannii NCTC 13423): > 50 µM
MIC (A. baumannii NCTC 13423; supplementary molecular formula strings sheet, read-out: MIC (A. baumannii)): > 50 µM
MIC P. aeruginosa ATCC 9027 (P. aeruginosa ATCC 9027; pre-exposure, Inactive = no activity up to 200 μM, > = some inhibition but no MIC reached): Inactive
Compound: CCCCCCCCCCc1ccc2nc(CC(N)(CO)CO)ccc2c1 [Compound 83, 2-Amino-2-[(6-decylquinolin-2-yl)methyl]propane-1,3-diol]
inhibition at 5 µM (S. aureus ATCC 25923 [1]; 5 µM, read-out: Average inhibition %, biofilms biomass): 37.3 ± 7.9%
inhibition at 5 µM (S. aureus ATCC 25923 [1]; 5 µM, read-out: Average inhibition %, planktonic cells turbidity): 37.9 ± 5.1%
inhibition at 10 µM (S. aureus ATCC 25923 [1]; [3]): 97.3 ± 0.8%
inhibition at 10 µM (S. aureus ATCC 25923 [1]; [4]): 99.5 ± 0.2%
inhibition at 15 µM (S. aureus ATCC 25923 [1]; [5]): 93.9 ± 1.4%
inhibition at 15 µM (S. aureus ATCC 25923 [1]; [6]): 99.4 ± 0.1%
inhibition at 25 µM (S. aureus ATCC 25923 [1]; [7]): 89.4 ± 1.4%
inhibition at 25 µM (S. aureus ATCC 25923 [1]; [8]): 99 ± 0.2%
Average inhibition %, biofilms viability (S. aureus ATCC 25923 [1]; 5 µM): 34.6 ± 5.8%
Average inhibition %, planktonic cells viability (S. aureus ATCC 25923 [1]; 5 µM): 6.9 ± 10.7%
Average inhibition %, biofilms viability (S. aureus ATCC 25923 [1]; 10 µM): 99.6 ± 0.4%
Average inhibition %, planktonic cells viability (S. aureus ATCC 25923 [1]; 10 µM): 99.6 ± 0%
Average inhibition %, biofilms viability (S. aureus ATCC 25923 [1]; 15 µM): 99.8 ± 0.6%
Average inhibition %, planktonic cells viability (S. aureus ATCC 25923 [1]; 15 µM): 99.6 ± 0%
Average inhibition %, biofilms viability (S. aureus ATCC 25923 [1]; 25 µM): 99.6 ± 0.4%
Average inhibition %, planktonic cells viability (S. aureus ATCC 25923 [1]; 25 µM): 99.7 ± 0%
Average inhibition %, biofilms viability (S. aureus ATCC 25923 [2]; 25 µM): 16.8 ± 17.2%
Average inhibition %, planktonic cells viability (S. aureus ATCC 25923 [2]; 25 µM): 14.1 ± 20.9%
Average inhibition %, biofilms viability (S. aureus ATCC 25923 [2]; 50 µM): 34.4 ± 15.3%
Average inhibition %, planktonic cells viability (S. aureus ATCC 25923 [2]; 50 µM): 22.7 ± 19.5%
Average inhibition %, biofilms viability (S. aureus ATCC 25923 [2]; 100 µM): 56.6 ± 18.2%
Average inhibition %, planktonic cells viability (S. aureus ATCC 25923 [2]; 100 µM): 80.3 ± 17.9%
Average inhibition %, biofilms viability (S. aureus ATCC 25923 [2]; 200 µM): 58.6 ± 19.5%
Average inhibition %, planktonic cells viability (S. aureus ATCC 25923 [2]; 200 µM): 88.3 ± 12.1%
inhibition at 25 µM (S. aureus ATCC 25923 [2]; [9]): 31.7 ± 20.9%
inhibition at 25 µM (S. aureus ATCC 25923 [2]; [10]): 27.1 ± 19.8%
inhibition at 50 µM (S. aureus ATCC 25923 [2]; [9]): 50.3 ± 6.4%
inhibition at 50 µM (S. aureus ATCC 25923 [2]; [10]): 28.3 ± 13.2%
inhibition at 100 µM (S. aureus ATCC 25923 [2]; [9]): 71.3 ± 10.2%
inhibition at 100 µM (S. aureus ATCC 25923 [2]; [10]): 64.4 ± 14%
inhibition at 200 µM (S. aureus ATCC 25923 [2]; [9]): 71.5 ± 5.8%
inhibition at 200 µM (S. aureus ATCC 25923 [2]; [10]): 65.3 ± 5.8%
Average inhibition %, biofilms viability (A. baumannii NCTC 13423; 10 µM): 0.7 ± 1.2%
Average inhibition %, planktonic cells viability (A. baumannii NCTC 13423; 10 µM): 8 ± 5.8%
Average inhibition %, biofilms viability (A. baumannii NCTC 13423; 15 µM): 1.2 ± 2.2%
Average inhibition %, planktonic cells viability (A. baumannii NCTC 13423; 15 µM): 7.2 ± 6.6%
Average inhibition %, biofilms viability (A. baumannii NCTC 13423; 25 µM): 5.6 ± 6.6%
Average inhibition %, planktonic cells viability (A. baumannii NCTC 13423; 25 µM): 3.1 ± 3.1%
Average inhibition %, biofilms viability (A. baumannii NCTC 13423; 50 µM): 68.9 ± 2.6%
Average inhibition %, planktonic cells viability (A. baumannii NCTC 13423; 50 µM): 95.2 ± 1.7%
inhibition at 10 µM (A. baumannii NCTC 13423; [3]): 6.4 ± 9.4%
inhibition at 10 µM (A. baumannii NCTC 13423; [4]): 0%
inhibition at 15 µM (A. baumannii NCTC 13423; [5]): 0%
inhibition at 15 µM (A. baumannii NCTC 13423; [6]): 0%
inhibition at 25 µM (A. baumannii NCTC 13423; [7]): 0%
inhibition at 25 µM (A. baumannii NCTC 13423; [8]): 11.8 ± 12.4%
inhibition at 50 µM (A. baumannii NCTC 13423; [11]): 10.4 ± 10.2%
inhibition at 50 µM (A. baumannii NCTC 13423; [12]): 88.3 ± 1.5%
Average inhibition %, biofilms viability (P. aeruginosa ATCC 9027; 50 µM): 12.2 ± 21.1%
Average inhibition %, planktonic cells viability (P. aeruginosa ATCC 9027; 50 µM): 10.5 ± 6.5%
Average inhibition %, biofilms viability (P. aeruginosa ATCC 9027; 100 µM): 0.5 ± 0.9%
Average inhibition %, planktonic cells viability (P. aeruginosa ATCC 9027; 100 µM): 14.8 ± 0.4%
Average inhibition %, biofilms viability (P. aeruginosa ATCC 9027; 150 µM): 2.6 ± 3.8%
Average inhibition %, planktonic cells viability (P. aeruginosa ATCC 9027; 150 µM): 20.2 ± 15%
Average inhibition %, biofilms viability (P. aeruginosa ATCC 9027; 200 µM): 1.1 ± 1%
Average inhibition %, planktonic cells viability (P. aeruginosa ATCC 9027; 200 µM): 16.3 ± 15.7%
inhibition at 50 µM (P. aeruginosa ATCC 9027; [11]): 6.4 ± 11.1%
inhibition at 50 µM (P. aeruginosa ATCC 9027; [12]): 35.2 ± 3%
inhibition at 100 µM (P. aeruginosa ATCC 9027; 100 µM, read-out: Average inhibition %, biofilms biomass): 2.1 ± 2.3%
inhibition at 100 µM (P. aeruginosa ATCC 9027; 100 µM, read-out: Average inhibition %, planktonic cells turbidity): 38.6 ± 10.1%
inhibition at 150 µM (P. aeruginosa ATCC 9027; 150 µM, read-out: Average inhibition %, biofilms biomass): 1.3 ± 2.3%
inhibition at 150 µM (P. aeruginosa ATCC 9027; 150 µM, read-out: Average inhibition %, planktonic cells turbidity): 34.8 ± 16.4%
inhibition at 200 µM (P. aeruginosa ATCC 9027; 200 µM, read-out: Average inhibition %, biofilms biomass): 3.7 ± 4.7%
inhibition at 200 µM (P. aeruginosa ATCC 9027; 200 µM, read-out: Average inhibition %, planktonic cells turbidity): 33.2 ± 7.3%
